Calls of active or inactive are those of the source. No cut-off for these calls is given here.
Experiments:
[1] = test system: Candida albicans; assay: Increase in intracellular ROS level in Candida albicans assessed as fold increase in fluorescence intensity measured after 12 hrs by fluorescence microscopic analysis relative to control; format: functional
[2] = test system: Cryptococcus neoformans; assay: Increase in intracellular ROS level in Cryptococcus neoformans assessed as fold increase in fluorescence intensity measured after 12 hrs by fluorescence microscopic analysis relative to control; format: functional
[3] = Toxicity in mouse infected with Candida albicans assessed as morphological changes in lungs at 20 mg/kg, ip administered on days 2,4,6,8,10,12 and measured on day 14 by hematoxyin-eosin staining based analysis; format: organism-based; conditions: in vivo, 312 h, time 13 day
[4] = target: T1, Prostaglandin G/H synthase 2 (Homo sapiens, UniProt P35354); assay: Inhibition of COX2 (unknown origin) assessed as reduction in PGF2alpha content using arachidonic acid as substrate preincubated for 10 mins followed by substrate addition and measured after 2 mins by enzyme immunoassay
T1 sequence (P35354 whole entry): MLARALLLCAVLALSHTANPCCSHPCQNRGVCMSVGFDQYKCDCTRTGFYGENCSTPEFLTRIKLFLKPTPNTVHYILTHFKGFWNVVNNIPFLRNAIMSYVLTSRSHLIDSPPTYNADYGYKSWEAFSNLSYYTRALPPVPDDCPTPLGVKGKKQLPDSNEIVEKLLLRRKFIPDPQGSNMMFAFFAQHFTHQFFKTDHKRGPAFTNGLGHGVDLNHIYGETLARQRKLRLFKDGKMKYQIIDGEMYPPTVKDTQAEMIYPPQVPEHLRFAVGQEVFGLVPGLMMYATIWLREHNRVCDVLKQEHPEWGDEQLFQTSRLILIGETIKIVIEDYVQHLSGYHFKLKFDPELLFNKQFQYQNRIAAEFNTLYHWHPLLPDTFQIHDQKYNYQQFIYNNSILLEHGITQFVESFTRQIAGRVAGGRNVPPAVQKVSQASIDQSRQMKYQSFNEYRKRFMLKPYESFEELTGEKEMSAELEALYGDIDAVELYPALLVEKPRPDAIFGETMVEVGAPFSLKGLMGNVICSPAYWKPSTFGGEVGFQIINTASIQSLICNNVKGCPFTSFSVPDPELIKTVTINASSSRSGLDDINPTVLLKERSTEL

[5] = test system: Candida albicans; assay: Induction of morphological changes in Candida albicans ATCC SC5314 assessed as fungal cells with edema, cavitation, nuclear enrichment, accumulation of low density granular materials measured after 48 to 72 hrs by transmission electron microscopy; format: functional, organism-based; conditions: time 48-72 hrs
[6] = test system: Candida albicans; assay: Induction of morphological changes in Candida albicans ATCC SC5314 assessed as disintegration of fungal cell membrane and cell wall measured after 96 hrs by transmission electron microscopy; format: functional, organism-based
[7] = test system: Candida albicans; assay: Induction of morphological changes in Candida albicans ATCC SC5314 assessed as fungal cells with irregular shrunken characteristics measured after 48 to 72 hrs by transmission electron microscopy; format: functional, organism-based; conditions: time 48-72 hrs
[8] = test system: Candida albicans; assay: Induction of morphological changes in Candida albicans ATCC SC5314 assessed as exudation of fungal cell contents to the external region measured after 96 hrs by transmission electron microscopy; format: functional, organism-based
[9] = test system: Candida albicans; assay: Induction of morphological changes in Candida albicans ATCC SC5314 assessed as reduction in fungal cell thickness measured after 48 to 72 hrs by transmission electron microscopy; format: functional, organism-based; conditions: time 48-72 hrs
[10] = test system: Candida albicans; assay: Induction of morphological changes in Candida albicans ATCC SC5314 assessed as rupturing of marginal regions measured after 96 hrs by transmission electron microscopy; format: functional, organism-based

SMILES	Activity [1]	Activity [2]	Activity [3]	IC50 [4] [nM]	Activity [5]	Activity [6]	Activity [7]	Activity [8]	Activity [9]	Activity [10]
OC(Cn1cncn1)(Cn1cncn1)c1ccc(F)cc1F [FLUCONAZOLE]	Active	Active	–	–	–	–	–	–	–	–
C[C@H](C(=O)N(C)CC(O)(Cn1ccnc1)c1ccc(Cl)cc1)c1ccc(-c2ccccc2)c(F)c1 (some centres not stated)	–	–	Non-Toxic	2290	–	–	–	–	–	–
C[C@H](C(=O)N(C)CC(O)(Cn1ccnc1)c1ccc(Cl)cc1Cl)c1cccc(C(=O)c2ccccc2)c1 (some centres not stated)	–	–	Non-Toxic	1930	Active	Active	Active	Active	Active	Active
